According to patent publication US20080200499A1, “Selective Insecticides and/or Acaricides Based on Substituted Cyclic Dicarbonyl Compounds and Safeners” (priority 2004, published 2008):

Legend:
Type in all cases: in vivo
Summer barley = assay: Greenhouse trial with safener after seed dressing (seed trays), summer barley; conditions: evaluation after 14 d
Method: (§1) In an agate mortar, the amount of safener and the amount of active compound required to prepare a 20 WS formulation are dissolved in acetone, and the appropriate amount of formulation without active compounds (which is actually used to prepare Gaucho 70 WS) is added. The mixture is allowed to dry until only a small amount of residual moisture can be detected. Using a spatula, the substance is carefully detached from the side of the mortar, and the substance is comminuted in the mortar until it has dried. An amount of the laboratory formulation thus prepared which is appropriate for the amount of seed to be dressed is filled into beakers of a size big enough so that, during dressing, they are at most one third filled with seed. A sufficient amount of water (depending on the properties of the seed surface) is then added. The seed is then filled into these beakers containing formulation and water and dressed on a test tube shaker with the aid of a spatula or glass rod. Once the formulation is distributed on the seed as uniformly as possible, the seed is allowed to dry in a fume hood.
(§2) 3 l trays made of plastic (20×20×5 cm) are filled with sandy loam. Using a punch, the soil is firmed such that the deposition depth required for the crop in question is achieved. 20 seeds/seed tray are placed at regular intervals with the aid of a pair of tweezers impressed into the soil using the abovementioned punch. The test containers are placed in a greenhouse and, using the punch, the surface is once again firmed gently. In addition to the test substances, an untreated control is tested, too. Per variant, there are at least 2 trays. The trays are watered and covered with a film until the plants have emerged. After emergence, the trays are watered 2 times a day. Evaluation is carried out by counting the plants that have emerged and by assessing damage, (in %) over an interval of 5-14 days after sowing in comparison to the untreated control.

Winter barley [1] = assay: Greenhouse trial with safener after seed dressing (seed trays), winter barley; conditions: evaluation after 14 d
Method: as §1, §2

[2] = tested on: bird cherry-oat aphid (Rhopalosiphum padi); assay: Safener test after spraying, variant b: kill of aphids on winter barley; conditions: spray
Method: (§3) To produce a suitable preparation of active compound, 1 part by weight of active compound is mixed with the stated amounts of solvent and emulsifier, and the concentrate is diluted with tap water to the desired concentration. The desired amount of safener (in the case of mefenpyr-diethyl as WP 20) is mixed into the water used for dilution. Furthermore, 2 g of ai/l of rapeseed oil methyl ester 500 EW are added. Leaves of winter barley at the 2-leaf stage which are infested by the bird cherry-oat aphid (Rhopalosiphum padi) are treated with the desired active compound and safener concentrations using a spray boom, the water application rate being 300 l/ha. Per variant, the test is carried out at least twice. Evaluation is carried out after 7 d and/or 14 d by assessing the plant damage in %, where both the treated plant and new growth and the kill of the grain aphids in % compared to the untreated control are evaluated. 100% damage means that the plant has died, and 0% means no damage. 100% effect on the grain aphids means that all aphids have been killed; 0% means that none of the aphids have been killed.
(§4) In variant b), the active compound is applied as an SC formulation in the desired concentrations as in variant a) in a mixture with mefenpyr-diethyl WP 20 and 2 g of ai/l rapeseed oil methyl ester 500 EW. Practice and evaluation is carried out as stated in variant a).

Winter barley [3] = assay: Safener test after spraying, variant b: plant damage
Method: as §3, §4

[4] = tested on: bird cherry-oat aphid (Rhopalosiphum padi); assay: Safener test after spraying, variant a: kill of aphids on winter barley; conditions: spray
Method: as §3

Winter barley [5] = assay: Safener test after spraying, variant a: plant damage
Method: as §3

[6] = tested on: cotton aphid (Aphis gossypii); assay: Aphis gossypii test (spray application); conditions: cotton plants
From the text: (§5) The expected activity of a given combination of two active compounds can be calculated according to S. R. Colby, Weeds 15 (1967), 20-22 as follows:
(§6) if • X is the kill rate when employing active compound A at an application rate of m g/ha or in a concentration of m ppm, • Y is the kill rate when employing active compound B at an application rate of n g/ha or in a concentration of n ppm and • E is the kill rate when using the active compounds A and B at application rates of m and n g/ha or in a concentration of m and n ppm, then
(§7) If the actual activity exceeds the calculated value, the activity of the combination is superadditive, i.e. a synergistic effect is present. In this case, the actually observed kill rate must exceed the value calculated using the above formula for the expected kill rate (E).
(§8) To prepare a suitable application solution, 1 part by weight of formulation is mixed with the appropriate amount of water and the adjuvant and the concentrate is diluted with water to the desired concentration.
Cotton plants (Gossypium herbaceum) which are heavily infested by the cotton aphid (Aphis gossypii) are sprayed to runoff point with the desired concentration of the application solution.
(§9) After the desired period of time, the kill in % is determined. 100% means that all aphids have been killed; 0% means that none of the aphids have been killed. The determined kill rates are entered in Colby's formula.

[7] = tested on: green peach-aphid (Myzus persicae); assay: Myzus persicae test (spray application); conditions: bell pepper plants
From the text: as §5, §6, §7, §8
Bell pepper plants (Capsicum sativum) which are heavily infested by the green peach-aphid (Myzus persicae) are sprayed to runoff point with the desired concentration of the application solution.
as §9

Maize = assay: Greenhouse trial with safener after seed dressing (seed trays), maize; conditions: evaluation after 14 d
Method: In an agate mortar, the amount of safener and the amount of active compound required to prepare a 20 WS formulation are dissolved in acetone, and the appropriate amount of formulation without active compounds (which is actually used to prepare Gaucho 70 WS) is added. The mixture is allowed to dry until only a small amount of residual moisture can be detected. Using a spatula, the substance is carefully detached from the side of the mortar, and the substance is comminuted in the mortar until it has dried. An amount of the laboratory formulation thus prepared which is appropriate for the amount of seed to be dressed is filled into beakers of a size big enough so that, during dressing, they are at most one third filled with seed. A sufficient amount of water (depending on the properties of the seed surface) is then added. The seed is then filled into these beakers containing formulation and water and dressed on a test tube shaker with the aid of a spatula or glass rod. Once the formulation is distributed on the seed as uniformly as possible, the seed is allowed to dry in a fume hood. 3 l trays made of plastic (20×20×5 cm) are filled with sandy loam. Using a punch, the soil is firmed such that the deposition depth required for the crop in question is achieved. 20 seeds/seed tray are placed at regular intervals with the aid of a pair of tweezers impressed into the soil using the abovementioned punch. The test containers are placed in a greenhouse and, using the punch, the surface is once again firmed gently. In addition to the test substances, an untreated control is tested, too. Per variant, there are at least 2 trays. The trays are watered and covered with a film until the plants have emerged. After emergence, the trays are watered 2 times a day. Evaluation is carried out by counting the plants that have emerged and by assessing damage, (in %) over an interval of 5-14 days after sowing in comparison to the untreated control.

[8] = tested on: grain aphids (Metopolophium dirhodum); assay: Metopolophium dirhodum test (spray application); conditions: barley plants
From the text: as §5, §6, §7, §8
Barley plants (Hordeum vulgare) which are heavily infested by a grain aphids (Metopolophium dirhodum) are sprayed to runoff point with the desired concentration of the application solution.
as §9

[9] = variant b, spray, 200 g of ai/ha
[10] = variant b, spray, 200 g of ai/ha, 14 d
[11] = variant a, spray, 200 g of ai/ha

CCOC(=O)C1=NN(c2ccc(Cl)cc2Cl)C(C)(C(=O)OCC)C1 (centres unmarked) [Mefenpyr-diethyl, diethyl 1-(2,4-dichlorophenyl)-4,5-dihydro-5-methyl-1H-pyrazole-3,5-dicarboxylate]
% damage (Summer barley; 1 g of ai/kg of seed): 0% | plants that have emerged in % (Summer barley; 1 g of ai/kg of seed): 75% | % damage (Winter barley [1]; 1 g of ai/kg of seed): 0% | plants that have emerged in % (Winter barley [1]; 1 g of ai/kg of seed): 83% | Kill (%) 7 d ([2]; 200 g of ai/ha): 0% | Kill (%) 14 d ([2]; 200 g of ai/ha): 0% | Damage (%) 7 d (Winter barley [3]; [9]): 0% | Damage to new growth (%) 7 d (Winter barley [3]; [9]): 0% | Damage (%) 14 d (Winter barley [3]; [10]): 0% | Damage to new growth (%) 14 d (Winter barley [3]; [10]): 0% | Kill (%) 7 d ([4]; 200 g of ai/ha): 0% | Kill (%) 14 d ([4]; 200 g of ai/ha): 0% | Damage (%) 7 d (Winter barley [5]; [11]): 0% | Damage to new growth (%) 7 d (Winter barley [5]; [11]): 0% | Damage (%) 14 d (Winter barley [5]; [11]): 0% | Damage to new growth (%) 14 d (Winter barley [5]; [11]): 0%

C=CCN(CC=C)C(=O)C(Cl)Cl [Dichlormid a.i., 2,2-dichloro-N,N-di-2-propenylacetamide]
Kill rate in % after 7 d ([6]; 100 ppm): 0% | Kill rate in % after 7 d ([7]; 100 ppm): 0%

Cc1cc(Cl)cc(C)c1C1(Cl)C(=O)NC2(CCOCC2)C1=O (centres unmarked) [Example I-1-1]
% damage (Maize; 2 g of ai/kg of seed): 95% | plants that have emerged in % (Maize; 2 g of ai/kg of seed): 71% | % damage (Summer barley; 2 g of ai/kg of seed): 100% | plants that have emerged in % (Summer barley; 2 g of ai/kg of seed): 0% | % damage (Winter barley [1]; 2 g of ai/kg of seed): 100% | plants that have emerged in % (Winter barley [1]; 2 g of ai/kg of seed): 0% | Kill rate in % after 7 d ([6]; 20 ppm): 20%

CCOC(=O)C1=NOC(c2ccccc2)(c2ccccc2)C1 [Isoxadifen-ethyl, ethyl 4,5-dihydro-5,5-diphenyl-3-isoxazolecarboxylate]
% damage (Maize; 1 g of ai/kg of seed): 0% | plants that have emerged in % (Maize; 1 g of ai/kg of seed): 96%

CCCCCC(C)OC(=O)COc1ccc(Cl)c2cccnc12 (centres unmarked) [Cloquintocet-mexyl a.i., 1-methylhexyl 5-chloroquinolin-8-oxyacetate]
Kill rate in % after 7 d ([8]; 100 ppm): 0%

Clc1cc(Cl)nc(-c2ccccc2)n1 [Fenclorim a.i., 4,6-dichloro-2-phenylpyrimidine]
Kill rate in % after 3 d ([6]; 100 ppm): 0% | Kill rate in % after 7 d ([6]; 100 ppm): 0% | Kill rate in % after 7 d ([7]; 100 ppm): 0%

CC1(C)OC(c2ccco2)CN1C(=O)C(Cl)Cl (centres unmarked) [Furilazole a.i., 3-dichloroacetyl-5-(2-furanyl)-2,2-dimethyloxazolidine]
Kill rate in % after 3 d ([6]; 100 ppm): 0% | Kill rate in % after 7 d ([7]; 100 ppm): 0% | Kill rate in % after 7 d ([8]; 100 ppm): 0%

COC1CCC2(CC1)NC(=O)C(Cl)(c1c(C)cc(Br)cc1C)C2=O (centres unmarked) [Example I-1-2]
Kill (%) 7 d ([2]; 8 g of ai/ha): 73% | Kill (%) 14 d ([2]; 8 g of ai/ha): 33% | Kill (%) 7 d ([2]; 40 g of ai/ha): 100% | Kill (%) 14 d ([2]; 40 g of ai/ha): 70% | Damage (%) 7 d (Winter barley [3]; winter barley, in vivo): 40% | Damage to new growth (%) 7 d (Winter barley [3]; winter barley, in vivo): 100% | Damage (%) 14 d (Winter barley [3]; winter barley, in vivo, 14 d): 60% | Kill (%) 7 d ([4]; 40 g of ai/ha): 100% | Kill (%) 14 d ([4]; 40 g of ai/ha): 78% | Damage (%) 7 d (Winter barley [5]; winter barley, in vivo): 40% | Damage to new growth (%) 7 d (Winter barley [5]; winter barley, in vivo): 70% | Damage (%) 14 d (Winter barley [5]; winter barley, in vivo): 50% | Damage to new growth (%) 14 d (Winter barley [5]; winter barley, in vivo): 80% | Kill rate in % after 3 d ([6]; 20 ppm): 0% | Kill rate in % after 7 d ([7]; 20 ppm): 25% | Kill rate in % after 7 d ([8]; 20 ppm): 45%
